According to US8686044B2, “Amide derivative, pest control agent containing the amide derivative, and use of the amide derivative” (Mitsui Chemicals Agro, Inc., priority 2008, dated 2014):

How the values were obtained:
Assay type in all cases: in vivo
Adoxophyes honmai = experiment: Pesticidal test against Adoxophyes honmai (artificial feed dip); settings: 144 h, concentration 1 ppm, 2-stage larvae, examined after 6 days, 25° C., read-out: pesticidal rate
In short: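 Thin artificial feed slices dipped 30 s in test solution at a predetermined concentration, air-dried, then offered to 2nd-stage larvae. Kept at 25° C; live and dead larvae counted after 6 days. Five larvae per group, two replicates.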

Laodelphax striatellus = experiment: Pesticidal test against Laodelphax striatellus (rice seedling spray); settings: 144 h, concentration 100 ppm, 3-stage larvae, examined after 6 days, 25° C., read-out: pesticidal rate
In short: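 Rice seedlings sprayed with 2.5 ml acetone solution of compound at a predetermined concentration, air-dried, then infested with third-stage Laodelphax striatellus larvae in capped water-containing tubes at 25 °C. Living and dead insects counted after 6 days; ten larvae per group, two replicates.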

Ctenocephalides Felis [1] = experiment: Insecticidal test for Ctenocephalides felis, Test Example 3 (dry film in glass tube, 0.96 ml, Table A5); settings: adults of Ctenocephalides felis, after 24 hours of exposure, in triplicate
Experimental: Insecticidal Test for Ctenocephalides felis
0.96 ml of a solution of acetone, the active ingredient, prepared to the prescribed concentration was added dropwise to a glass tube with a flat bottom (internal diameter: 3.6 cm, height: 12 cm), and the solvent was evaporated at room temperature to form a dry film of the agent on the bottom surface. About 10 adults of Ctenocephalides felis per glass tube were added, and they were contact-exposed to the test compound. After 24 hours of the exposure, the conditions of the adults were examined and classified into “alive” and “dead (including a moribund condition)” to determine the death rate was determined (in triplicate).
As the comparative compounds, the following Compounds (D) and (E) disclosed in WO2009/080203, and fipronil were used.

Ctenocephalides Felis [2] = experiment: Insecticidal test for Ctenocephalides felis, Test Example 1 (dry film in glass tube, 0.5 ml, Table A4); settings: adults

SMILES | pest or weed control at 1 ppm (Adoxophyes honmai) | pest or weed control at 100 ppm (Laodelphax striatellus) | death rate (Ctenocephalides Felis [1]; 0.03 μg/ml) | death rate (Ctenocephalides Felis [1]; 0.1 μg/ml) | effect in the examination after 12 hours of the exposure (Ctenocephalides Felis [2])
CN(C(=O)c1ccccc1)c1cccc(C(=O)Nc2c(Br)cc(C(F)(C(F)(F)F)C(F)(F)F)cc2C(F)(F)F)c1F [7-1574, N-(2-bromo-4-(perfluoropropan-2-yl)-6-(trifluoromethyl)phenyl)-2-fluoro-3-(N-methylbenzamide)benzamide] | ≥ 70% | ≥ 70% | 72.0% | 98.9% | effective
CN(C(=O)c1ccc(F)cc1)c1cccc(C(=O)Nc2c(I)cc(C(F)(C(F)(F)F)C(F)(F)F)cc2C(F)(F)F)c1F [7-1733, 2-fluoro-3-(4-fluoro-N-methylbenzamide)-N-(2-iodo-4-(perfluoropropan-2-yl)-6-(trifluoromethyl)phenyl)benzamide] | ≥ 70% | ≥ 70% | 21.1% | 91.6% | 
